Patent US20260325605A1, “INHIBITORS” (Zealand Pharma A/S, priority 2022, published 2026)

Key:
[1] = test system: KLH-induced DTH ear swelling in rats; assay: Example 8: Long-lasting effect in KLH-induced delayed type hypersensitivity (DTH) model; type: in vivo, rat (Lewis)
Procedure: The animal care facility employed is accredited by AAALAC. Female Lewis rats, weighing 180±20 g at delivery were used for this study. Following arrival in the animal facility, all animals were subjected to a general health evaluation. An acclimation period of 1 day was allowed before the beginning of the study.
The animal room was maintained at a controlled temperature of 20-24° C. and a relative humidity of 30-70%. A controlled lighting system assured 12 hours light, 12 hours dark per day to the animals. Adequate ventilation of 15 air changes per hour was maintained.
This study was performed to investigate the length of effect of a Kv1.3 inhibitor (peptide 100) on ear inflammation in the KLH-induced DTH model in rats.
(§1) Healthy male Lewis rats aged 8-9 weeks were immunized on day 0 with 200 μL keyhole limpet hemocyanin (KLH) (from Sigma, cat.no. H7017) (4 mg/mL) emulsified in complete Freund's adjuvant (CFA) (Difco, cat.no. 263810) subcutaneously (SC) at the base of the tail.
(§2) To elicit a KLH-specific T cell-mediated local inflammation, rats were challenged intradermally at indicated timepoints (days 7, 9, 11 or 13 post-immunisation) with 40 μL KLH/NaCl 0.9% (2 mg/mL) in the left ear. Ear edemas were measured after 24-48 hrs and the right ear that was left untreated served as control. A schematic overview of the protocol is depicted in FIG. 1.
The ability of Kv1.3 inhibitor treatment to reduce the DTH ear swelling response was investigated by comparing the response in rats (n=8/group) treated with vehicle to that of rats treated with peptide 100. Vehicle or peptide 100 dissolved in vehicle was administered SC (2 mL/kg) on day 6. The test dose of Kv1.3 inhibitor was 300 nmol/kg. Test vehicle was 10 mM phosphate, 0.8% w/v NaCl, 0.05% w/v polysorbate20, pH 6. Cyclosporine A (CsA) was included as positive study control.
As readout of efficacy, the thickness of the induced ear 24 hrs and 48 hrs after respective ear challenge was measured and compared to vehicle control. Ear thickness 24 hrs after challenge is shown in Table 10 and FIG. 2 and ear thickness 48 hrs after challenge is shown in Table 11 and FIG. 3.

[2] = test system: KLH-induced DTH ear swelling in rats; assay: Example 10: Maximal effective dose in KLH-induced DTH model; type: in vivo, rat (Lewis)
Procedure: as §1
as §2, with “1. […]” for “1.”
This study was conducted as described in example 8 with the difference that the rats were only challenged intradermally at days 7 or 11 post-immunisation (i.e. day 1 and day 5 after treatment) with 40 μL KLH/NaCl 0.9% (2 mg/mL) in the left ear. A schematic overview of the protocol is depicted in FIG. 5.
The doses of Kv1.3 inhibitor treatment able to reduce the DTH ear swelling response was investigated by comparing the response in rats (n=8/group) treated with vehicle to that of rats treated with different doses of peptide 100. Vehicle or peptide 100 dissolved in vehicle was administered SC (2 mL/kg) on day 6 post-immunisation. The test dose of Kv1.3 inhibitor was 10, 100, 300 or 700 nmol/kg. Test vehicle was 10 mM phosphate, 0.8% w/v NaCl, 0.05% w/v polysorbate20, pH 6.
As readout of efficacy, the thickness of the induced ear 24 hrs and 48 hrs after respective ear challenge was measured and compared to vehicle control. Ear thickness 24 hrs after challenge is shown in Table 13 and FIG. 6 and ear thickness 48 hrs after challenge is shown in Table 14 and FIG. 7.

H-P[Nle]E[Nle]RC(1)SASVEC(2)KQKC(3)LAAIGSIFGKC(1)[Nle]NKKC(2)KC(3)YPR-OH [Peptide 100]
effect on KLH-induced ear swelling / inflammation ([1]; 300 nmol/kg on day 6, challenges on days 7, 9 and 11, in words): reduced KLH-induced ear swelling after challenges on days 7, 9 and 11
Mean ear thickness of KLH-induced ear ([1]; 300 nmol/kg s.c. day 6, challenge day 7, 24 hrs post-challenge (2 days post-treatment), vehicle 0.796, p<0.0001): 0.676±0.017 mm
Mean ear thickness of KLH-induced ear ([1]; 300 nmol/kg s.c. day 6, challenge day 7, 48 hrs post-challenge (3 days post-treatment), vehicle 0.733, p<0.0001): 0.623±0.015 mm
Mean ear thickness of KLH-induced ear ([1]; 300 nmol/kg s.c. day 6, challenge day 9, 24 hrs post-challenge (4 days post-treatment), vehicle 0.761, p=0.0011): 0.689±0.031 mm
Mean ear thickness of KLH-induced ear ([1]; 300 nmol/kg s.c. day 6, challenge day 9, 48 hrs post-challenge (5 days post-treatment), vehicle 0.729, p=0.0002): 0.659±0.034 mm
Mean ear thickness of KLH-induced ear ([1]; 300 nmol/kg s.c. day 6, challenge day 11, 24 hrs post-challenge (6 days post-treatment), vehicle 0.784, p<0.0001): 0.681±0.023 mm
Mean ear thickness of KLH-induced ear ([1]; 300 nmol/kg s.c. day 6, challenge day 11, 48 hrs post-challenge (7 days post-treatment), vehicle 0.746, p<0.0001): 0.653±0.013 mm
Mean ear thickness of KLH-induced ear ([1]; 300 nmol/kg s.c. day 6, challenge day 13, 24 hrs post-challenge (8 days post-treatment), vehicle 0.767, p=0.0696, not significant): 0.729±0.038 mm
Mean ear thickness of KLH-induced ear ([1]; 300 nmol/kg s.c. day 6, challenge day 13, 48 hrs post-challenge (9 days post-treatment), vehicle 0.720, p=0.2256, not significant): 0.699±0.028 mm
Mean ear thickness of KLH-induced ear ([1]; measured 48 hrs post-challenge, day 3 post-treatment, 300 nmol/kg SC): 0.623 mm
Mean ear thickness of KLH-induced ear ([1]; measured 48 hrs post-challenge, day 5 post-treatment, 300 nmol/kg SC): 0.659 mm
Mean ear thickness of KLH-induced ear ([1]; measured 48 hrs post-challenge, day 7 post-treatment, 300 nmol/kg SC): 0.653 mm
Mean ear thickness of KLH-induced ear ([1]; measured 48 hrs post-challenge, day 9 post-treatment, 300 nmol/kg SC): 0.699 mm
Mean ear thickness of KLH-induced ear ([2]; 10 nmol/kg s.c., challenge day 11, 24 hrs post-challenge, vehicle 0.848, p=0.0495): 0.807±0.025 mm
Mean ear thickness of KLH-induced ear ([2]; 10 nmol/kg s.c., challenge day 11, 48 hrs post-challenge, vehicle 0.819, p=0.0009): 0.761±0.025 mm
Mean ear thickness of KLH-induced ear ([2]; 100 nmol/kg s.c., challenge day 11, 24 hrs post-challenge, vehicle 0.848, p=0.0015): 0.777±0.019 mm
Mean ear thickness of KLH-induced ear ([2]; 100 nmol/kg s.c., challenge day 11, 48 hrs post-challenge, vehicle 0.819, p<0.0001): 0.713±0.034 mm
Mean ear thickness of KLH-induced ear ([2]; 300 nmol/kg s.c., challenge day 11, 24 hrs post-challenge, vehicle 0.848, p=0.0005): 0.772±0.009 mm
Mean ear thickness of KLH-induced ear ([2]; 300 nmol/kg s.c., challenge day 11, 48 hrs post-challenge, vehicle 0.819, p<0.0001): 0.684±0.016 mm
Mean ear thickness of KLH-induced ear ([2]; 700 nmol/kg s.c., challenge day 11, 24 hrs post-challenge, vehicle 0.848, p=0.0007): 0.771±0.018 mm
Mean ear thickness of KLH-induced ear ([2]; 700 nmol/kg s.c., challenge day 11, 48 hrs post-challenge, vehicle 0.819, p<0.0001): 0.671±0.011 mm
Mean ear thickness of KLH-induced ear ([2]; 24 hrs post-challenge, day 2 post-treatment, 100 nmol/kg SC): 0.704 mm
Mean ear thickness of KLH-induced ear ([2]; 24 hrs post-challenge, day 6 post-treatment, 10 nmol/kg SC): 0.807 mm
Mean ear thickness of KLH-induced ear ([2]; 24 hrs post-challenge, day 6 post-treatment, 100 nmol/kg SC): 0.777 mm
Mean ear thickness of KLH-induced ear ([2]; 24 hrs post-challenge, day 6 post-treatment, 300 nmol/kg SC): 0.772 mm
Mean ear thickness of KLH-induced ear ([2]; 24 hrs post-challenge, day 6 post-treatment, 700 nmol/kg SC): 0.771 mm
Mean ear thickness of KLH-induced ear ([2]; 48 hrs post-challenge, day 3 post-treatment, 100 nmol/kg SC): 0.652 mm
Mean ear thickness of KLH-induced ear ([2]; 48 hrs post-challenge, day 7 post-treatment, 10 nmol/kg SC): 0.761 mm
Mean ear thickness of KLH-induced ear ([2]; 48 hrs post-challenge, day 7 post-treatment, 100 nmol/kg SC): 0.713 mm
Mean ear thickness of KLH-induced ear ([2]; 48 hrs post-challenge, day 7 post-treatment, 300 nmol/kg SC): 0.684 mm
Mean ear thickness of KLH-induced ear ([2]; 48 hrs post-challenge, day 7 post-treatment, 700 nmol/kg SC): 0.671 mm
dose with which a maximal effect is obtained ([2]; KLH-induced DTH model, s.c.): 300 nmol/kg
Mean ear thickness of KLH-induced ear ([2]; s.c. day 6, dose not given, challenge day 7, 24 hrs post-challenge, vehicle 0.721, p=0.1216): 0.704±0.018 mm
Mean ear thickness of KLH-induced ear ([2]; s.c. day 6, dose not given, challenge day 7, 48 hrs post-challenge, vehicle 0.694, p=0.0008): 0.652±0.026 mm
